Laboratory results as given in US7485653B2, “1,4-dihydropyridine compounds, pharmaceutical compositions, and methods for the treatment of cardiovascular disease” (Gilead Sciences, Inc., priority 2003, dated 2009).

Experiments:
[1] = system: α-myosin heavy chain (α-MyHC) protein levels; experiment: α-MyHC cytoblot assay in neonatal rat ventricular myocytes (NRVM); assay type: cell-based
Procedure: FIG. 1 Concentration-dependent effect of Compound 1 on αMyHC protein levels in the cytoblot assay. NRVM are cultured for 3 days in serum-free medium in the presence of differing amounts of Compound 1. At the end of the culture period, NRVM are fixed and analyzed for α-MyHC protein levels using the BA-G5 monoclonal antibody specific for α-MyHC. Results are collected as RLU using a Packard Fusion Plate reader, and normalized to the signal from samples cultured in the absence of compound (control, set to 100%).
Preparation and culture of neonatal rat ventricular myocytes (NRVM) was performed by removing hearts from 1-3 day old rat neonatal pups, along with the atria and lungs. The ventricles were cut into smaller pieces and digested 3 times with collagenase for 20-30 min at 37° C. The myocytes were then separated from other cell types using a Percoll gradient. The myocyte layer was collected, washed 2 times, and plated on tissue culture grade 10 cm Petri dishes for 1-2 hrs. The non-adherent cells (myocytes) were removed and plated in Costar clear view 96 well plates coated with 0.2% gelatin for at least 2 hrs. The gelatin solution was removed, and the myocytes were resuspended in DMEM high glucose media (Mediatech) containing 10% charcoal/dextran treated FBS (Hyclone) and 1% Penicillin-Streptomycin-Glutamine (PSG, Gibco). Ten thousand NRVM were plated per well in a 100 μl volume, and incubated overnight at 37° C. in 5% CO2 in air. The following day, the media was replaced with 100 μl of serum-free DMEM high glucose medium supplemented with PSG and 0.3% Nutridoma-SP (Roche).
Compounds were reconstituted in DMSO at 30 mM, and aliquots were stored at −20° C. A 1:1000 dilution was prepared in serum-free DMEM medium supplemented with PSG and 0.3% Nutridoma, and sonicated for 5 min at room temperature. After sonication, additional 3 fold dilutions were prepared in the same medium. Diluted compound was then added to the NRVM cultures in a volume of 100 μl. […]
For the α-MyHC cytoblot assay, NRVM cultures were analyzed for α-MyHC protein levels after 3 days of incubation. […] Excess antibody was removed with 3 PBS washes, and a chemiluminescent substrate was added (Pierce SuperSignal West Pico Chemiluminscent Substrate) for 5 min before quantitation on a Packard Fusion Plate Reader.
As shown above in Table 1, Compound 1 increased α-MyHC protein levels as determined by an α-MyHC cytoblot assay. […] After 3 days of incubation with NRVM, α-MyHC protein levels were detected in the cytoblot assay and quantitated (FIG. 1). […] An increase in α-MyHC protein levels was first detected beginning at 30 nM, with a maximal response observed at 3 μM. […]

[2] = system: Hypertrophy of NRVM (secretion of atrial natriuretic factor); experiment: Anti-hypertrophic activity in NRVM, ANF ELISA (ANF secretion); assay type: cell-based; conditions: Rattus norvegicus, read-out: IC50 of the ANF ELISA (antihypertrophic activity)
Procedure: Anti-hypertrophic Activity of Racemic Compound 1 and the Purified Enantiomers of Compound 1. Neonatal rat ventricular myocytes (NRVM) were isolated from 1 to 3 day-old Sprague-Dawley rats using enzymatic digestion and myocyte enrichment techniques. NRVM were cultured in serum-containing media for 18 hours. For the continuation of culture, serum-free media was used. Hypertrophy of NRVM was induced using pharmacological stimuli, including phenylephrine, endothelin-1, and […]. Hypertrophic responses were determined using methods including the following: measurement of total cellular protein; secretion of atrial natriuretic factor; determination of cell volume; determination of the expression of so-called fetal genes such as atrial natriuretic factor, beta-myosin heavy chain and alpha-skeletal actin. ANF secretion was the most sensitive assay for measuring hypertrophy, and the IC50 of the ANF ELISA was the measurement used to determine antihypertrophic activity.

α-MyHC protein levels = experiment: Western blotting of α-MyHC protein in NRVM; assay type: cell-based, rat; conditions: NRVM stimulated 3 days; Compound 1 10 nM to 10 μM
Procedure: FIG. 2 Effect of Compound 1 on α-MyHC protein levels as detected by Western blotting. NRVM are stimulated with Compound 1 at different concentrations for 3 days. Protein extracts are prepared, proteins are separated by SDS-PAGE electrophoresis, transferred to PVDF membrane, and detected with an anti-α-MyHC monoclonal antibody.
As an independent measure of changes in α-MyHC protein levels, NRVM stimulated with Compound 1 were analyzed for α-MyHC protein levels by Western blotting. Protein extracts prepared from NRVM stimulated with a range of concentrations of Compound 1 from 10 nM to 10 μM were separated by SDS-PAGE and transferred to PVDF membrane. Levels of α-MyHC protein were detected by Western blotting using the same anti-α-MyHC monoclonal antibody used in the cytoblot assay. […] This experiment verified that the changes in α-MyHC protein detected in the cytoblot assay were also evident by Western blotting.

CC(=O)C1=C(C)NC(SCC(=O)c2cccc([N+](=O)[O-])c2)=C(C#N)C1c1ccccc1Cl (racemic) [Compound 1]
% increase of a-MyHC over baseline at 10 mM Cpd ([1]; 3 days incubation): 206% | concentration at which an increase in α-MyHC protein levels was first detected ([1]; 3 days, tested 3 nM to 30 μM): 30 nM | concentration of maximal response (α-MyHC protein levels) ([1]; 3 days, tested 3 nM to 30 μM): 3 µM | EC50 ([1]; Rattus norvegicus, Ventricular myocyte, 72 h, 3 days, average of six independent experiments, read-out: concentration that gave a half-maximal response (α-MyHC protein levels)): 0.06 µM | IC50 [2]: 0.427 µM | α-MyHC protein levels by Western blotting (α-MyHC protein levels): increasing amounts of α-MyHC protein were observed with increasing amounts of Compound 1
